{
  "source": "patent US20060128643A1",
  "about": "“Compositions containing a combination of a creatine compound and a second agent” (The General Hospital Corporation, priority 1998, published 2006)",
  "key": {"[1]": {"settings": "cited from earlier work"}, "[2]": {"test_system": "malonate striatal lesions", "settings": "cited from earlier work; for protection against lesions in the malonate animal model: in vivo"}, "MPTP toxicity": {"test_system": "MPTP toxicity", "settings": "mice; cited from earlier work"}, "[3]": {"test_system": "MPTP neurotoxicity (dopamine depletion)", "settings": "animal model of Parkinson's disease; cited from earlier work"}, "[4]": {"settings": "feeding animals, e.g. 1% dietary; cited from earlier work"}, "[5]": {"settings": "rats receiving dietary 1% cyclocreatine; cited from earlier work"}, "[6]": {"test_system": "malonate induced striatal lesions", "assay": "Malonate model of Huntington's disease: striatal lesion volume (Example 1)", "type": "in vivo, rats", "method": "Oral administration of creatine and its analogue cyclocreatine were examined to determine their ability to attenuate malonate lesions. Creatine was administered orally to rats in their feed at doses of 0.25-3.0% of the diet. Cyclocreatine was administered at 0.2-1.0%. Controls received unsupplemented otherwise identical diets. The compounds were administered for two weeks prior to the administration of malonate and then for a further week prior to sacrifice. Malonate was dissolved in distilled deionized water and the pH wad adjusted to 7.4 with 0.1 m HCl. Intrastriatal injections of 1.5 ul of malonate containing 3 μmol were made into the striatum at the level of the bregma 2.4 mm lateral to the midline and 4.5 mm ventral to the dura. Animals were sacrificed at 7 days by decapitation, and the brains were quickly removed and placed in ice cold 0.9% saline solution. Brains were sectioned at 2 mm intervals. Slices were then placed posterior side down in 2% 2,3,5-triphenyltetrazolium chloride. Slices were stained in the dark at room temperature for 30 minutes and then removed and placed in 4% paraformaldehyde, pH 7.3. Lesions, noted by pale staining, were evaluated on the posterior surface of each section using a Bioquant 4 system by an experienced histologist blinded to experimental conditions. These measurements have been validated by comparing them to measurements obtained on adjacent Nissl stain sections."}, "[7]": {"settings": "cited from earlier work", "remark": "listed apart in the source"}, "[8]": {"test_system": "MPTP induced dopaminergic toxicity", "assay": "MPTP model for Parkinson's disease: striatal dopamine, DOPAC, HVA", "type": "in vivo, male Swiss Webster mice", "method": "The effect of two representative creatine compounds, creatine and cyclocreatine, were evaluated using this model. Creatine and cyclocreatine were administered in the initial pilot experiment as 1% formulation in the feed of animals, and was administered for three weeks before MPTP treatment. MPTP was administered intraperitoneally at a dose of 15 mg/kg every 2 hours for five injections. The animals then remained on either creatine or cyclocreatine supplemented diets for 1 week before sacrifice. The mice examined were male Swiss Webster mice weighing 30-35 grams obtained from Taconic Farms. Control groups received either normal saline or MPTP hydrochloride alone. MPTP was administered in 0.1 ml of water. The MPTP was obtained from Research Biochemicals. Eight to twelve animals were examined in each group. Following sacrifice the two striata were rapidly dissected and placed in chilled 0.1 M perchloric acid. Tissue was subsequently sonicated, and aliquots were taken for protein quantification using a fluorometer assay. Dopamine, 3,4-dihydroxyphenylacetic acid (DOPAC), and homovanillic acid (HVA) were quantified by HPLC with 16 electrode electrochemical detection. Concentrations of dopamine and metabolites were expressed as nmol/mg protein. The statistical significance of differences was determined by one-way ANOVA followed by Fisher PLSDpost-hoc test to compare group means.\nA dose response study was conducted where the creatine dose was 0.25%-3.0% of the diet and cyclocreatine 0.25-1.0% of the diet."}, "[9]": {"settings": "up to 1% of diet for 2 weeks or for over 4 weeks; cited from earlier work"}, "creatine kinase": {"molecular_target": "creatine kinase (Oryctolagus cuniculus, UniProt P00563)", "sequence (P00563 whole entry)": "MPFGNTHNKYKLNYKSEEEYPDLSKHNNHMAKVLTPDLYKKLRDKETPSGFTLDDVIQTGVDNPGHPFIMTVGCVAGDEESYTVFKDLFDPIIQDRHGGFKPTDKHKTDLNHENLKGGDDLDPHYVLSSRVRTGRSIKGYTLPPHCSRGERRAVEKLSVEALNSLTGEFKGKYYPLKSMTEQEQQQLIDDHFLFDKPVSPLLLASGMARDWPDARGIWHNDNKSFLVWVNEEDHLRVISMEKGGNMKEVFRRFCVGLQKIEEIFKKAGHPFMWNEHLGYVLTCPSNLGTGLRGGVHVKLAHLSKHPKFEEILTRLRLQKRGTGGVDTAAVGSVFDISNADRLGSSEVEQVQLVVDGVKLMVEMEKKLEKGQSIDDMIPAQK", "settings": "cited from earlier work"}, "[10]": {"test_system": "malonate lesions (striatal)", "assay": "Malonate striatal lesions, creatine and nicotinamide (Example 4)", "type": "in vivo, male Sprague-Dawley rats", "settings": "creatine 1% in the diet, nicotinamide 0.5% in the drinking water; malonate 3 μmol intrastriatal", "method": "Studies of the neuroprotective effects of creatine and nicotinamide were carried out in 250 to 300 g male Sprague-Dawley rats. Creatine was administered orally to rats in their feed at a dose of 1% in the diet. Nicotinamide was administered orally with apple juice at a dose of 0.5% in the drinking water. Rats were treated for one week prior to intracerebral injectior˜s. Animals then remained on the control or supplemented diets for one week prior to being sacrificed. Eleven to 12 animals were examined in each experimental group. NMDA was administered at a doge of 240 nmol in 1 μl. AMPA was administered at a dose of 30 nmol in 1 μl and kainic acid was administered at dose of 5 nmol in 1 μl. Malonate was dissolved in distilled deionized water and the pH was adjusted to 7.4 with HCl. Intrastriatal injections of 3 μmol of malonate in 1.5 μl were made with a 10 μl Hamiiton syringe fitted with a 26 gauge blunt tip needle, into the left striatum at the level of the bregma, 2.4 mm lateral to the midline and 4.5 mm ventral to the dura as described previously [Matthews, R. T et al. J. Neurosci., 18 (1998) 156-163]. […] Lesions noted by pale staining were evaluated on the posterior surface of each section using a Bioquant 4 system, which calculates the volume of the lesions in each section, by an experienced histologist blinded to experimental conditions. […]"}, "[11]": {"settings": "intravenous injection, up to 8 grams/day, patients with cardiac diseases; cited from earlier work"}, "[12]": {"settings": "dose response study, 0.5% of the diet"}},
  "data": [
    {"compound": "COC1=C(OC)C(=O)C(C/C=C(\\C)CC/C=C(\\C)CC/C=C(\\C)CC/C=C(\\C)CC/C=C(\\C)CC/C=C(\\C)CC/C=C(\\C)CC/C=C(\\C)CC/C=C(\\C)CCC=C(C)C)=C(C)C1=O", "note": "[CoQ10, 2,3 dimethoxy-5 methyl-6-decaprenyl benzoquinone]", "values": [
      {"measurement": "solubility in chloroform and carbon tetrachloride", "setting": "[1]", "value": "very soluble"},
      {"measurement": "solubility in water", "setting": "[1]", "value": "insoluble in water"},
      {"measurement": "ATP depletion produced by malonate in vivo", "setting": "[2]", "value": "attenuated ATP depletion"},
      {"measurement": "protection against lesions in the malonate animal model", "setting": "[2]", "value": "dose dependent protection"},
      {"measurement": "protection against MPTP toxicity", "setting": "MPTP toxicity", "value": "significantly protect"}
    ]},
    {"compound": "CC(C)(C)[N+]([O-])=Cc1ccccc1S(=O)(=O)O", "note": "[N-tert-a-(2-sulfophenyl) nitrone, reference compound]", "values": [
      {"measurement": "protection against dopamine depletion", "setting": "[3]", "value": "effective in inhibiting moderate dopamine depletion"}
    ]},
    {"compound": "NC1=NCCN1CC(=O)O", "note": "[cyclocreatine, 1-carboxymethyl-2-iminoimidazolidine]", "values": [
      {"measurement": "accumulation in organs", "setting": "[4]", "value": "accumulation of cyclocreatine in different organs in mM concentrations"},
      {"measurement": "tissue uptake", "setting": "[5]", "value": "taken up by muscle, heart and brain"},
      {"measurement": "neuroprotection against malonate induced striatal lesions", "setting": "[6]; 1% in the diet", "value": "significant"},
      {"measurement": "neuroprotection against malonate induced striatal lesions, dose response", "setting": "[6]; increasing doses in the diet (creatine 0.25-3%; cyclocreatine 0.2-1.0%)", "value": "dose dependent neuroprotective effects"},
      {"measurement": "protection against striatal malonate lesions", "setting": "[6]; oral supplementation in feed, 2 weeks before and 1 week after intrastriatal malonate 3 μmol", "value": "protected against striatal malonate lesions"},
      {"measurement": "mortality", "setting": "[7]; diet containing 1% cyclocreatine, in the presence of antibiotics", "value": "without significant mortality"},
      {"measurement": "growth versus control chicks", "setting": "[7]; in vivo", "value": "grew more slowly"},
      {"measurement": "effect against MPTP induced depletions of homovanillic acid", "setting": "[8]; 1% in feed, pilot experiment", "value": "effective"},
      {"measurement": "neuroprotection against MPTP induced dopamine depletions", "setting": "[8]; 1% in feed, pilot experiment", "value": "significant neuroprotection"},
      {"measurement": "neuroprotective effect compared with creatine", "setting": "[8]; 1% in feed, pilot experiment", "value": "greater than that seen with creatine alone"},
      {"measurement": "protection against DOPAC depletions induced by MPTP", "setting": "[8]; 1% in feed, pilot experiment, MPTP 15 mg/kg i.p. x5", "value": "significantly protected"},
      {"measurement": "effects on the dopamine metabolites HVA and DOPAC", "setting": "[8]; dose response study (creatine 0.25%-3.0%; cyclocreatine 0.25-1.0% of the diet)", "value": "neuroprotection effects"},
      {"measurement": "neuroprotection against MPTP induced dopamine depletions", "setting": "[8]; [12]", "value": "significant protection"},
      {"measurement": "protection against HVA depletion", "setting": "[8]; [12]", "value": "not seen"},
      {"measurement": "neuroprotection against MPTP induced dopamine depletions", "setting": "[8]; dose response study, 1.0% of the diet", "value": "significant protection"},
      {"measurement": "gross adverse effects", "setting": "[9]", "value": "without gross adverse effects"}
    ]},
    {"compound": "N=C(N)N(CC(=O)O)CC1CO1", "note": "(centres unmarked) [epoxycreatine]", "values": [
      {"measurement": "inactivation of creatine kinase", "setting": "creatine kinase", "value": "completely and irreversibly inactivate"}
    ]},
    {"compound": "NC(=O)c1cccnc1", "note": "[nicotinamide]", "values": [
      {"measurement": "neuroprotective effect against malonate lesions (striatal lesion volume)", "setting": "[10]", "value": "did not reach significance"},
      {"measurement": "ATP depletion produced by malonate in vivo", "setting": "[2]", "value": "attenuated ATP depletion"},
      {"measurement": "protection against lesions in the malonate animal model", "setting": "[2]", "value": "dose dependent protection"},
      {"measurement": "protection against dopamine depletion", "setting": "[3]", "value": "effective in inhibiting moderate dopamine depletion"}
    ]},
    {"compound": "N-phosphoryl creatine [creatine phosphate]", "values": [
      {"measurement": "adverse side effects", "setting": "[11]", "value": "no adverse side effects"}
    ]},
    {"compound": "isoepoxycreatine", "values": [
      {"measurement": "inactivation of creatine kinase", "setting": "creatine kinase", "value": "completely and irreversibly inactivate"}
    ]}
  ]
}
